This assay deals with MHC-I expression by COLO 205 cells. The assay can be described thus: cells. The assay is classed as cell-based, human. The note with it: for fold induction at 35 µM: Homo sapiens, COLO 205, 48 h, read-out: Induction Fold. The procedure: A panel of synthetic cannabinoids (Cayman Chemical, #9002891) was tested for MHC class I-inducing capability in COLO 205 cells as described above. COLO 205 cells were treated with the compounds at a concentration of 35 μM and evaluated for cell surface MHC class I expression after 48 hours. Cells were harvested, stained with MHC-I mAb W6/32 (Thermo Fisher). MHC-I expression was determined by flow cytometry.

Setting [1] is: MHC-I expression, COLO 205 cells, compounds at 35 μM, 48 hours, flow cytometry (W6/32).

Where a name gives a salt, the structure may show the parent alone. Read-outs that look alike come from different tables or passages of the source.

As to `CCCCn1cc(C(=O)c2c(C)ccc3ccccc23)c2ccccc21` [Example 22, (1-butyl-1H-indol-3-yl)(2-methylnaphthalen-1-yl)methanone], the fold induction at 35 µM under setting [1] was determined as 3.84.

Consider `CCC(F)CCn1cc(C(=O)Oc2cccc3cccnc23)c2ccccc21` (stereo not drawn) [Example 45, quinolin-8-yl 1-(3-fluoropentyl)-1H-indole-3-carboxylate], for which the fold induction at 35 µM under setting [1] amounted to 3.02. Regarding `O=C(Oc1ccnc2ccccc12)c1cn(CCCCCF)c2ccccc12` [Example 92, quinolin-4-yl 1-(5-fluoropentyl)-1H-indole-3-carboxylate], the fold induction at 35 µM under setting [1] turned out to be 2.47. Consider `CC(F)CCCn1cc(C(=O)Oc2cccc3cccnc23)c2ccccc21` (stereo not drawn) [Example 102, quinolin-8-yl 1-(4-fluoropentyl)-1H-indole-3-carboxylate], for which the fold induction at 35 µM under setting [1] amounted to 2.41.

In the case of `COC(=O)[C@@H](NC(=O)c1nn(CCCCCF)c2ccccc12)C(C)C` [Example 279, N-[[1-(5-fluoropentyl)-1H-indazol-3-yl]carbonyl]-L-valine, methyl ester], under setting [1], the “Induction Fold” value amounted to 1.49 Fold. `CNCC(C)Cc1ccc2c(c1)OCO2` (stereo not drawn) [Example 348, N,β-dimethyl-1,3-benzodioxole-5-propanamine, monohydrochloride]: the fold induction at 35 µM under setting [1] was 1.11. On to “(1-hexyl-1H-indol-3-yl)-1-naphthalenyl-methanone [Example 140]”, for which the “Induction Fold” value was found to be 2.19 Fold. With `CCCC(C)(C)c1ccc2c(c1)OC(C)(C)[C@@H]1CC=C(C)C[C@@H]21` [Example 188, 3-(1,1-dimethylbutyl)-6aR,7,10,10aR-tetrahydro-6,6,9-trimethyl-6H-dibenzo[b,d]pyran], the “Induction Fold” value under setting [1] came to 1.90 Fold. For `CCCCCn1cc(C(=O)NC23CC4CC(CC(C4)C2)C3)c2ccccc21` [Example 108, 1-pentyl-N-tricyclo[3.3.1.1]dec-1-yl-1H-indole-3-carboxamide], the “Induction Fold” value came to 2.38 Fold. With `COc1cccc2c(C(=O)N3CCN(C)C(C)C3)cn(CC3CCCCC3)c12` (racemic) [Example 277, [1-(cyclohexylmethyl)-7-methoxy-1H-indol-3-yl](3,4-dimethyl-1-piperazinyl)-methanone], under setting [1], the fold induction at 35 µM was found to be 1.5. Still for that read-out and setting: the same measure for `CC(C)(C)C(NC(=O)c1cn(CCCCCF)c2ccccc12)C(N)=O` (stereo not drawn) [Example 297, N-[1-(aminocarbonyl)-2,2-dimethylpropyl]-1-(5-fluoropentyl)-1H-indole-3-carboxamide]: 1.42. Turning to `CCCCCn1cc(C(=O)c2ccc(OC)c3ccccc23)c2ccccc21` [Example 265, (4-methoxy-1-naphthalenyl)(1-pentyl-1H-indol-3-yl)-methanone], the fold induction at 35 µM under setting [1] amounted to 1.55. With `CCC(C)Cn1cc(C(=O)c2ccc3ccccc3c2)c2ccccc21` (stereo not drawn) [Example 271, (1-(2-methylbutyl)-1H-indol-3-yl)(naphthalen-2-yl)-methanone], the fold induction at 35 µM under setting [1] amounted to 1.54. The same measure, in the same setting: the same measure for `CC1(C)C(C(=O)c2cn(Cc3ccc(F)cc3)c3ccccc23)C1(C)C` [Example 62, (1-(4-fluorobenzyl)-1H-indol-3-yl)(2,2,3,3-tetramethylcyclopropyl)methanone]: 2.79; for `CC1(C)C(C(=O)c2cn(CCCCCBr)c3ccccc23)C1(C)C` [Example 222, [1-(5-bromopentyl)-1H-indol-3-yl](2,2,3,3-tetramethylcyclopropyl)-methanone]: 1.76. For the compound `O=C(Oc1ccc2ncccc2c1)c1cn(CC2CCCCC2)c2ccccc12` [Example 314, quinolin-6-yl 1-(cyclohexylmethyl)-1H-indole-3-carboxylate], under setting [1], the fold induction at 35 µM turned out to be 1.32. For the compound `CCCCCn1cc(C(=O)c2cccc3ccc(OC)cc23)c2ccccc21` [Example 163, (7-methoxy-1-naphthalenyl)(1-pentyl-1H-indol-3-yl)-methanone], under setting [1], the fold induction at 35 µM is 2.04. In the case of “1-naphthalenyl[1-(4-penten-1-yl)-1H-indol-3-yl]-methanone [Example 73]”, the “Induction Fold” value is 2.68 Fold. With `COC(=O)[C@@H](NC(=O)c1cn(Cc2ccc(F)cc2)c2ccccc12)C(C)C` [Example 270, N-[[1-[(4-fluorophenyl)methyl]-1H-indol-3-yl]carbonyl]-1-valine, methyl ester], the “Induction Fold” value under setting [1] was 1.54 Fold. For the compound `CN1CCCCC1Cn1cc(C(=O)C23CC4CC(CC(C4)C2)C3)c2ccccc21` (stereo not drawn) [Example 68, [1-[(1-methyl-2-piperidinyl)methyl]-1H-indol-3-yl]tricyclo[3.3.1.13,7]dec-1-yl-methanone], the fold induction at 35 µM under setting [1] was determined as 2.72. Take `CN(C)C(=O)n1nnnc1Cc1ccc(-c2ccccc2)cc1` [Example 288, 5-([1,1′-biphenyl]-4-ylmethyl)-N,N-dimethyl-1H-tetrazole-1-carboxamide]: the fold induction at 35 µM under setting [1] was found to be 1.45. Regarding `CCCCCn1cc(C(=O)NC(C)(C)c2ccccc2)c2ccccc21` [Example 351, N-(1-methyl-1-phenylethyl)-1-pentyl-1H-indole-3-carboxamide], the fold induction at 35 µM under setting [1] turned out to be 1.07. Same read-out and setting: the same measure for `CCCCCn1cc(C(=O)c2cccc3c(OC)cccc23)c2ccccc21` [Example 346, (5-methoxynaphthalen-1-yl)(1-pentyl-1H-indol-3-yl)methanone]: 1.13; for `CCCCCn1c2ccccc2c2cc(C(=O)c3cccc4ccccc34)ccc21` [Example 315, naphthalen-1-yl(9-pentyl-9H-carbazol-3-yl)methanone]: 1.32. The same measure, in the same setting: the same measure for `C=CCCCn1cc(C(=O)c2ccc(C)c3ccccc23)c2ccccc21` [Example 334, (4-methylnaphthalen-1-yl)(1-(pent-4-en-1-yl)-1H-indol-3-yl)methanone]: 1.2; for `CC(C)(NC(=O)c1c2ccccc2nn1CCCCC#N)c1ccccc1` (single isomer, unassigned) [Example 299, 2-(4-cyanobutyl)-N-(2-phenylpropan-2-yl)-2H-indazole-3-carboxamide]: 1.42; for `CCCCCn1cc(C(=O)c2cccc3cccc(C)c23)c2ccccc21` [Example 81, (8-methylnaphthalen-1-yl)(1-pentyl-1H-indol-3-yl)methanone]: 2.57.

Consider `CCC(F)CCn1nc(C(=O)NC(C(N)=O)C(C)C)c2ccccc21` (stereo not drawn) [Example 335, N-(1-amino-3-methyl-1-oxobutan-2-yl)-1-(3-fluoropentyl)-1H-indazole-3-carboxamide], for which the fold induction at 35 µM under setting [1] came to 1.2. Turning to `CCCCCn1cc(C(=O)c2cccc3cccc(CC)c23)c2ccccc21` [Example 115, (8-ethylnaphthalen-1-yl)(1-pentyl-1H-indol-3-yl)methanone], the fold induction at 35 µM under setting [1] was found to be 2.35. As for `CCCCCCC(C)(C)c1ccc([C@@H]2CCC[C@H](O)C2)c(O)c1` [Example 39, 2[(1R,3S)-3-hydroxycyclohexyl]-5-(2-methyloctan-2-yl)phenol], the fold induction at 35 µM under setting [1] turned out to be 3.14. The same measure, in the same setting: then `CC(C)[C@H](NC(=O)c1cn(Cc2ccccc2)c2ccccc12)C(N)=O` [Example 323, N-[(1S)-1-(aminocarbonyl)-2-methylpropyl]-1-(phenylmethyl)-1H-indole-3-carboxamide], with 1.26. As for `COC(=O)[C@@H](NC(=O)c1cn(CC2CCCCC2)c2ccccc12)C(C)(C)C` [Example 31, N-[[1-(cyclohexylmethyl)-1H-indol-3-yl]carbonyl]-3-methyl-1-valine, methyl ester], under setting [1], the “Induction Fold” value is 3.35 Fold. In the case of `CC(C)Cn1cc(C(=O)c2ccc3ccccc3c2)c2ccccc21` [Example 284, (1-isobutyl-1H-indol-3-yl)(naphthalen-2-yl)methanone], under setting [1], the fold induction at 35 µM was determined as 1.46. Same read-out and setting: the same measure for `CCCCCn1cc(-c2nc(CN(CCOC)C(C)C)cs2)c2ccccc21` [Example 369, N-(2-methoxyethyl)-N-(1-methylethyl)-2-(1-pentyl-1H-indol-3-yl)-4-thiazolemethanamine, monohydrochloride]: 0.85; for `CCC(C)n1cc(C(=O)c2cccc3ccccc23)c2ccccc21` (stereo not drawn) [Example 127, (1-(sec-butyl)-1H-indol-3-yl)(naphthalen-1-yl)methanone]: 2.29; for `CCCCCn1cc(C(=O)Oc2ccc3ncccc3c2)c2ccccc21` [Example 256, quinolin-6-yl 1-pentyl-1H-indole-3-carboxylate]: 1.59.

For the compound `CCCCCCc1ccc(O)cc1OCCCCCCCCCCC(=O)NC1CC1` [Example 302, N-cyclopropyl-11-(2-hexyl-5-hydroxyphenoxy)-undecanamide], under setting [1], the fold induction at 35 µM turned out to be 1.4. As for `O=C(c1cccc2ccccc12)c1nc2ccccc2n1CCCCCF` [Example 40, (1-(5-fluoropentyl)-1H-benzo[d]imidazol-2-yl)(naphthalen-1-yl)methanone], the fold induction at 35 µM under setting [1] was 3.14. Turning to `CCCCCn1cc(C(=O)NCc2ccccc2)c2ccccc21` [Example 91, 1-pentyl-N-(phenylmethyl)-1H-indole-3-carboxamide], under setting [1], the fold induction at 35 µM came to 2.48. On to `CN1CCCCC(n2cc(C(=O)c3ccccc3I)c3ccccc32)C1` (stereo not drawn) [Example 24, (2-iodophenyl)(1-(1-methylazepan-3-yl)-1H-indol-3-yl)methanone], for which, under setting [1], the fold induction at 35 µM was 3.64.

`CC(F)CCCCn1cc(C(=O)c2cccc3ccccc23)c2ccccc21` (stereo not drawn) [Example 233, (1-(5-fluorohexyl)-1H-indol-3-yl)(naphthalen-1-yl)methanone]: the fold induction at 35 µM under setting [1] is 1.71. Still for that read-out and setting: the same measure for `CC(C)(C)C(NC(=O)c1cc(-c2ccc(F)cc2)nn1CCCCCF)C(N)=O` (stereo not drawn) [Example 119, N-[1-(aminocarbonyl)-2,2-dimethylpropyl]-1-(5-fluoropentyl)-3-(4-fluorophenyl)-1H-pyrazole-5-carboxamide]: 2.33.

These data come from patent US20210038559A1, “CANNABINOIDS AND DERIVATIVES FOR PROMOTING IMMUNOGENICITY OF TUMOR AND INFECTED CELLS” (priority 2018, published 2021).
